Experiment [1] deals with P. inhibens. Kind of experiment: Lag phase metabolomics with 13C-labeled DMSP. The following applies: 50 μM 13C-labeled DMSP, two hours, LC/MS. Format: cell-based, Phaeobacter inhibens. The method, then: DMSP was synthesized in which both S-methyl groups are ^13C-labeled, using the protocol of Wirth and Whitman (2018). Freshly initiated P. inhibens cultures (OD 0.01, ASW+CNS medium) were treated with 50 μM 13C-labeled DMSP and compared to reference cultures with non-labeled DMSP. Bacterial cells were harvested and extracted two hours after adding DMSP. The incorporation of the 13C label was analyzed by LC/MS (FIG. 12).
To further elucidate the fate of methyl groups, the inventors analyzed the transcriptome of DMSP-treated P. inhibens bacteria during the lag phase, and compared it to untreated control cultures. […] To further establish that DMSP methyl groups are assimilated via the methionine cycle, the inventors measured the methionine synthesis activity in protein crude extracts of stationary bacterial cells, using a biochemical assay followed by LC/MS analysis. […] Taken together, the inventors established that DMSP methyl groups are assimilated during the lag phase via the methionine cycle.

Experiment [2] concerns Phaeobacter inhibens DSM 17395. Kind of experiment: Growth / lag phase shortening assay of P. inhibens pure cultures with glucose. Format: cell-based. To be noted: for lag phase shortening effect (Δlag time) of panel compounds: 1 mM glucose and 2 μM of the respective compound. The method, then: ASW was adjusted to pH 8 using HCl. If not otherwise stated, the medium was further supplemented with a source of carbon (glucose, 1 mM), nitrogen (NH4Cl, 5 mM), and sulfur (Na2SO4, 33 mM), referred to as ASW+CNS. […] A 96-well Tecan Infinite M Plex plate reader was used for high-resolution monitoring of bacterial growth dynamics at 30° C. An ImageStreamX Flow Imager system (Amnis) was used to characterize bacterial populations during the lag phase (FIG. 6). The growth of bacteria in co-culture with algae was monitored by counting colony forming units (CFU) on ½ YTSS agar plates. The growth of algae was monitored with a CellStream flow cytometer (Merck, Darmstadt, Germany).
To test whether methylated compounds affect the growth of bacteria, the inventors cultivated bacterial pure cultures with glucose as main growth substrate and supplemented the medium with the well-studied methylated compound dimethylsulfoniopropionate (DMSP). DMSP that is naturally produced by microalgae and found in detectable levels in seawater, is known to be metabolized by various bacteria. […] To quantify the lag phase shortening effect, the inventors calculated the Δlag time, which is the time difference between the commence of exponential growth in control cultures compared to treated cultures (FIG. 5B).
To reflect the natural low bacterial abundance in the oligotrophic ocean with low microalgal productivity, the current bacterial growth experiments were routinely initiated with an optical density (OD) of 0.00001. Such low initial ODs challenge the detection of cell divisions that occur prior to reaching an OD of at least 0.001, which is the theoretical limit of detection. To determine the actual length of the lag phase, the inventors analyzed bacterial cultures using imagining flow cytometry.

For experiment [3], the system named is opportunistic pathogens, found in both plants and humans. Kind of experiment: Lag phase shortening in opportunistic pathogens found in plants and humans. It counts as cell-based. The source says: (§1) To explore whether lag phase shortening is a general mechanism among bacteria, the inventors tested the effect of methylated compounds in bacteria with different lifestyles. […] Since methylated compounds are a hallmark of photosynthesizing organisms, the inventors next tested a variety of bacteria that are plant-associated. […] Finally, to establish the prevalence of lag phase shortening among bacteria, the inventors tested the model bacterium E. coli. This bacterium is not commonly found associated with photosynthesizing organisms, and thus, is unlikely to respond to algal metabolites. […] The synchrony between specific compounds and different groups of bacteria may reflect the natural context […].

The subject of experiment [4] is E. coli. Kind of experiment: Lag phase shortening in E. coli. It counts as cell-based, Escherichia coli.
Excerpt: as §1

For experiment [5], the system named is P. inhibens mttB1 KO mutant. In words: Lag phase shortening in mttB1 knockout mutant. It counts as cell-based, Phaeobacter inhibens. The method, then:
(§2) For creation of P. inhibens knockout cells, ˜1,000 bp regions upstream and downstream of the gene of interest were amplified by PCR (Phusion High-Fidelity DNA polymerase, Thermo Scientific), using primers that added homologous regions to gentamycin or kanamycin resistance markers. The fragments were assembled and cloned into the TOPOII vector (Invitrogen) using restriction-free cloning (Peleg Y. & Unger T., 2014), generating a knockout (KO) plasmid. P. inhibens electrocompetent cells (300 μl) were transformed with 10 μg of the constructed KO plasmid by a pulse of 1.8 kV (Bio Rad). Cells were selected on ½YTSS agar plates containing 30 μg/ml gentamycin or 150 μg/ml kanamycin. Successful knockouts in single cell clones were verified by PCR and sanger sequencing.
The inventors further sought to better understand why methyl groups shorten the bacterial lag phase. The inventors list at least three cellular scenarios which could explain the effect that methylated compounds have on the lag phase: (1) methyl groups might be a limiting resource; (2) methyl groups might act as a signal that triggers a cellular cascade, which culminates in lag phase shortening; and (3) methylated compounds could accumulate intracellularly and function as osmoprotectants and antioxidants. […]

Experiment [6] relates to Bacillus subtilis strain 168. In words: Lag phase shortening in B. subtilis. Format: cell-based. The method, then:
The bacterial strain Phaeobacter inhibens DSM 17395 was purchased from the German collection of microorganisms and cell cultures (DSMZ, Braunschweig, Germany) and stored at −80° C. with 20% glycerol. Routine cultivation of P. inhibens was conducted at 30° C. in artificial seawater medium (ASW) based on Goyet and Poisson (1989). The ASW medium contained mineral salts (NaCl, 409.41 mM; Na2SO4, 28.22 mM; KCl, 9.08 mM; KBr, 0.82 mM; NaF, 0.07 mM; Na2CO3, 0.20 mM; NaHCO3, 2 mM; MgCl2, 50.66 mM; SrCl2, 0.09 mM), L1 vitamins (thiamine HCl, 100 μg/L; biotin, 0.5 μg/L; vitamin B12, […]), L1 trace elements (Na2EDTA·2H2O, 4.36 mg/L; FeCl3·6H2O, 3.15 mg/L; MnCl2·4H2O, 178.1 μg/L; ZnSO4·7H2O, 23.0 μg/L; CoCl2·6H2O, 11.9 μg/L; CuSO4·5H2O, 2.5 μg/L; Na2MoO4·2H2O, 19.9 μg/L; H2SeO3, 1.29 μg/L; NiSO4·6H2O, 2.63 μg/L; Na3 VO4, 1.84 μg/L; K2CrO4, 1.94 μg/L), and L1 nutrients (NaNO3, 882 μM; NaH2PO4, 36.22 μM). ASW was adjusted to pH 8 using HCl. If not otherwise stated, the medium was further supplemented with a source of carbon (glucose, 1 mM), nitrogen (NH4Cl, 5 mM), and sulfur (Na2SO4, 33 mM), referred to as ASW+CNS. Methylated effector compounds (e.g., donors) were administered at 1 or 2 μM in routine assays, or in higher concentrations as stated. The bacterium Bacillus subtilis strain 168 was cultivated in M9 Medium (Na2HPO4, 6 g/L; KH2PO4, 3 g/L; NaCl, 0.5 g/L; NH4CL, 1 g/L; CaCl2), 100 µM; MgSO4, 1 mM; Thiamine, 5 mg/L; EDTA, 50 mg/L; FcCl3, 4.98 mg/L; ZnCl2, 0.84 mg/L; CuCl2·2H2O, 0.13 mg/L; CoCl2·6H2O, 0.1 mg/L; H3BO3, 0.1 mg/L; MnCl2·4H2O, 0.016 mg/L; pH 7.1) with 20 mM glucose. Other bacterial strains tested for lag phase shortening were isolated from the marine environment (Despotović et al., 2021), and cultivated in ASW+CNS. A 96-well Tecan Infinite M Plex plate reader was used for high-resolution monitoring of bacterial growth dynamics at 30° C. […] The growth of bacteria in co-culture with algae was monitored by counting colony forming units (CFU) on ½ YTSS agar plates. The growth of algae was monitored with a CellStream flow cytometer (Merck, Darmstadt, Germany). […]

Experiment [7] relates to marine bacterium Vibrio sp. Kind of experiment: Lag phase shortening in Vibrio sp. Format: cell-based. To be noted: 2 μM compound. The method, then:
(§3) The bacterial strain Phaeobacter inhibens DSM 17395 was purchased from the German collection of microorganisms and cell cultures (DSMZ, Braunschweig, Germany) and stored at −80° C. with 20% glycerol. Routine cultivation of P. inhibens was conducted at 30° C. in artificial seawater medium (ASW) based on Goyet and Poisson (1989). The ASW medium contained mineral salts (NaCl, 409.41 mM; Na2SO4, 28.22 mM; KCl, 9.08 mM; KBr, 0.82 mM; NaF, 0.07 mM; Na2CO3, 0.20 mM; NaHCO3, 2 mM; MgCl2, 50.66 mM; SrCl2, 0.09 mM), L1 vitamins (thiamine HCl, 100 μg/L; biotin, 0.5 μg/L; vitamin B12, […]), L1 trace elements (Na2EDTA·2H2O, 4.36 mg/L; FeCl3·6H2O, 3.15 mg/L; MnCl2·4H2O, 178.1 μg/L; ZnSO4·7H2O, 23.0 μg/L; CoCl2·6H2O, 11.9 μg/L; CuSO4·5H2O, 2.5 μg/L; Na2MoO4·2H2O, 19.9 μg/L; H2SeO3, 1.29 μg/L; NiSO4·6H2O, 2.63 μg/L; Na3 VO4, 1.84 μg/L; K2CrO4, 1.94 μg/L), and L1 nutrients (NaNO3, 882 μM; NaH2PO4, 36.22 μM). ASW was adjusted to pH 8 using HCl. […] A 96-well Tecan Infinite M Plex plate reader was used for high-resolution monitoring of bacterial growth dynamics at 30° C. […] The growth of bacteria in co-culture with algae was monitored by counting colony forming units (CFU) on ½ YTSS agar plates. The growth of algae was monitored with a CellStream flow cytometer (Merck, Darmstadt, Germany). […]

Experiment [8] concerns Various marine bacteria. In words: Lag phase shortening in various marine bacteria. It counts as cell-based. The following applies: minute amounts of compound. The method, then:
as §3

Experiment [9] relates to bacteria that are plant-associated. In words: Lag phase shortening in plant-associated bacteria. Format: cell-based.
Excerpt: as §1

The subject of experiment [10] is P. inhibens Δbmt mutant. In words: Growth and lag phase shortening in Δbmt mutant. It counts as cell-based, Phaeobacter inhibens. To be noted: minimal media, addition of 200 μM methionine. The method, then:
as §2

Consider `[13CH3][S+]([13CH3])CCC(=O)[O-]` [13C-labeled DMSP], for which the “metabolic fate of DMSP methyl groups (13C label incorporation)” value in experiment [1] was “converted into SAM”.
With `C[S+](C)CC(=O)[O-]` [DMSA, dimethylsulfonioacetate], the “lag phase shortening effect (Δlag time) of panel compounds” value (“lag phase shortening effect (Δlag time)” below) in experiment [2] is listed as “most pronounced”.
As for `C[S+](C)CC[C@H](N)C(=O)O` [SMM, S-methyl-L-methionine], the lag phase shortening entry in experiment [3] is given as “shorten their lag phase”; in [4] (modified strains BL21(DE3) and DH5α), “this effect was observed”; in [4] (wild-type strain K12) it was “only showed this effect upon addition of greater SMM concentrations”. The Δlag time entry in experiment [4] (E. coli BL21, 2 μM SMM (FIG. 17C)) was “Δlag time of one hour”.
In the case of `COc1cc(Cc2cnc(N)nc2N)cc(OC)c1OC` [Trimethoprim, reference compound], the “growth of P. inhibens in the presence of the THF inhibitor” value in experiment [2] is given as “cannot grow unless the culture is supplemented with nucleotides”.
With `C[N+](C)(C)CC(=O)O` [betaine, glycine betaine], the lag phase shortening result is given as “does not shorten the lag phase” in experiment [5]; “induction of the lag phase shortening” in experiment [6] (2 μM compound); “induction of the lag phase shortening” in [7]; “marked lag phase shortening” in [8]; “significant shortening of the lag phase” in experiment [9]; “did not shorten the lag phase” in [4] (treatment with algal metabolites). In [6] (FIG. 17B), this compound yielded a Δlag time of 7 h. In addition, the “lag phase shortening effect (Δlag time)” value in [2] is reported as “most pronounced”.
As for `C[N+](C)(C)CC(O)CC(=O)[O-]` (centres unmarked) [carnitine], in experiment [2], the “lag phase shortening effect (Δlag time)” value was “most pronounced”.
Still for that read-out and setting: in the case of `C[S+](C)CCC(O)CC(=O)[O-]` (centres unmarked) [gonyol] it was “most pronounced”.
Regarding `CSCC[C@H](N)C(=O)O` [methionine], in [10], the “growth of the Δbmt mutant” value is on record as “fully recovered”. For the same compound, the “lag phase shortening effect (Δlag time)” value in experiment [2] is “prolonged the lag phase”.
On to `C[N+]1(C)CCC[C@H]1C(=O)[O-]` [stachydrine], for which the “lag phase shortening effect (Δlag time)” value in [2] was “most pronounced”.
